Target: Chloride intracellular channel-1 (CLIC1) (Homo sapiens, UniProt O00299)
Test: microscale thermophoresis (also CLIC1 current block by patch clamp in GBM3 GSCs)
Format: binding
Set-up: recombinant CLIC1, NHS dye-labelled

Row | Structure (SMILES) | Kd [µM]
1 | COc1ccc(N2C(N)=NC(N)=NC2(C)C)cc1 [Q54] | 1900 ± 500
2 | COc1ccc(/N=C(\N)N=C(N)N)cc1 [Q48] | 15.6 ± 1.9
